Columns and labels:
[1] = target: GDP-bound NRAS wild-type protein (Homo sapiens, UniProt P01111); experiment: Binding to NRAS by surface plasmon resonance (SPR), Single Cycle Kinetics; details: KD ratio, GDP-bound NRAS wild-type vs GDP-bound KRAS wild-type, SPR
[2] = target: GDP-bound HRAS wild-type protein (Homo sapiens, UniProt P01112); experiment: Binding to HRAS by surface plasmon resonance (SPR), Single Cycle Kinetics; details: KD ratio, GDP-bound HRAS wild-type vs GDP-bound KRAS wild-type, SPR
Sequence of GDP-bound HRAS wild-type protein (P01112 whole entry): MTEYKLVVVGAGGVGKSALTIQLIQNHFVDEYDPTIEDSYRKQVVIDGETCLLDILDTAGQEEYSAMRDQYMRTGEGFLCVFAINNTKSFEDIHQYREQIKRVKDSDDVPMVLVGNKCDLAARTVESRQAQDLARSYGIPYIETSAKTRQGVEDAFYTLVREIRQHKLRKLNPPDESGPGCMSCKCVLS

Sequence of GDP-bound NRAS wild-type protein (P01111 whole entry): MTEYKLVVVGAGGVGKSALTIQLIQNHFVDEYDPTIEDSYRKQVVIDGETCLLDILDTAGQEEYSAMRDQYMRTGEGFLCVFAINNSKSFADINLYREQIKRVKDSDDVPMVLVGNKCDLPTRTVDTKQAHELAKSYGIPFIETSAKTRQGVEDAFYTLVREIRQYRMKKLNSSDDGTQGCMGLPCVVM

Row | Compound | NRAS/KRAS (ratio of KD value with respect to NRAS to KD value with respect to KRAS) [1] | HRAS/KRAS (ratio of KD value with respect to HRAS to KD value with respect to KRAS) [2]
1 | CC[C@H](C)[C@@H]1NC(=O)[C@H](CC(C)C)N(C)C(=O)C[C@@H](C(=O)N2CCOCC2)N(C)C(=O)[C@H](C2CCCC2)N(C)C(=O)C2(CCC2)NC(=O)[C@@H]2[C@@H](OCC3CC3)CCN2C(=O)[C@H](CCc2cc(F)c(C(F)(F)F)c(F)c2)NC(=O)CN(C)C(=O)[C@H](Cc2ccc(C(F)(F)F)cc2)N2CCCC[C@@H](C2=O)N(C)C(=O)CN(C)C1=O [PP1072] | B (a compound having 3 or more and less than 10 is denoted as B) | B (a compound having 3 or more and less than 10 is denoted as B)
2 | CC[C@H](C)[C@@H]1NC(=O)[C@H](CC(C)C)N(C)C(=O)C[C@@H](C(=O)N2CCOCC2)N(C)C(=O)[C@H](C2CCCC2)N(C)C(=O)C2(CCC2)NC(=O)[C@@H]2[C@@H](OCC3CCCC3)CCN2C(=O)[C@H](CCc2cc(F)c(C(F)(F)F)c(F)c2)NC(=O)CN(C)C(=O)[C@H](Cc2ccc(C(F)(F)F)cc2)N2CCCC[C@@H](C2=O)N(C)C(=O)CN(C)C1=O [PP1073] | B (a compound having 3 or more and less than 10 is denoted as B) | B (a compound having 3 or more and less than 10 is denoted as B)
3 | CC[C@H](C)[C@@H]1NC(=O)[C@H](CC(C)C)N(C)C(=O)C[C@@H](C(=O)N2CCOCC2)N(C)C(=O)[C@H](C2CCCC2)N(C)C(=O)C2(CCC2)NC(=O)[C@@H]2[C@@H](OC)CCN2C(=O)[C@H](CCc2cc(F)c(C(F)(F)F)c(F)c2)NC(=O)CN(C)C(=O)[C@H](Cc2ccc(C(F)(F)F)cc2)N2CCCC[C@@H](C2=O)N(C)C(=O)CN(C)C1=O [PP1075] | B (a compound having 3 or more and less than 10 is denoted as B) | B (a compound having 3 or more and less than 10 is denoted as B)
4 | CCO[C@H]1CCN2C(=O)[C@H](CCc3cc(F)c(C(F)(F)F)c(F)c3)NC(=O)CN(C)C(=O)[C@H](Cc3ccc(C(F)(F)F)cc3)N3CCCC[C@@H](C3=O)N(C)C(=O)CN(C)C(=O)[C@H]([C@@H](C)CC)NC(=O)[C@H](CC(C)C)N(C)C(=O)C[C@@H](C(=O)N3CCOCC3)N(C)C(=O)[C@H](C3CCCC3)N(C)C(=O)C3(CCC3)NC(=O)[C@H]12 [PP1076] | B (a compound having 3 or more and less than 10 is denoted as B) | B (a compound having 3 or more and less than 10 is denoted as B)
5 | CCCO[C@H]1CCN2C(=O)[C@H](CCc3cc(F)c(C(F)(F)F)c(F)c3)NC(=O)CN(C)C(=O)[C@H](Cc3ccc(C(F)(F)F)cc3)N3CCCC[C@@H](C3=O)N(C)C(=O)CN(C)C(=O)[C@H]([C@@H](C)CC)NC(=O)[C@H](CC(C)C)N(C)C(=O)C[C@@H](C(=O)N3CCOCC3)N(C)C(=O)[C@H](C3CCCC3)N(C)C(=O)C3(CCC3)NC(=O)[C@H]12 [PP1077] | B (a compound having 3 or more and less than 10 is denoted as B) | B (a compound having 3 or more and less than 10 is denoted as B)
6 | CCO[C@@H]1CCN2C(=O)[C@H](CCc3cc(F)c(C(F)(F)F)c(F)c3)NC(=O)CN(C)C(=O)[C@H](Cc3ccc(C(F)(F)F)cc3)N3CCCC[C@@H](C3=O)N(C)C(=O)CN(C)C(=O)[C@H]([C@@H](C)CC)NC(=O)[C@H](CC(C)C)N(C)C(=O)C[C@@H](C(=O)N3CCOCC3)N(C)C(=O)[C@H](C3CCCC3)N(C)C(=O)C3(CCC3)NC(=O)[C@H]12 [PP1079] | B (a compound having 3 or more and less than 10 is denoted as B) | B (a compound having 3 or more and less than 10 is denoted as B)
7 | CCCO[C@@H]1CCN2C(=O)[C@H](CCc3cc(F)c(C(F)(F)F)c(F)c3)NC(=O)CN(C)C(=O)[C@H](Cc3ccc(C(F)(F)F)cc3)N3CCCC[C@@H](C3=O)N(C)C(=O)CN(C)C(=O)[C@H]([C@@H](C)CC)NC(=O)[C@H](CC(C)C)N(C)C(=O)C[C@@H](C(=O)N3CCOCC3)N(C)C(=O)[C@H](C3CCCC3)N(C)C(=O)C3(CCC3)NC(=O)[C@H]12 [PP1080] | B (a compound having 3 or more and less than 10 is denoted as B) | B (a compound having 3 or more and less than 10 is denoted as B)
8 | CCO[C@@H]1CCN2C(=O)[C@H](CCc3cc(F)c(C(F)(F)F)c(F)c3)NC(=O)CN(C)C(=O)[C@H](Cc3ccc(C(F)(F)F)cc3)N3CCCCC[C@@H](C3=O)N(C)C(=O)CN(C)C(=O)[C@H]([C@@H](C)CC)NC(=O)[C@H](CC(C)C)N(C)C(=O)C[C@@H](C(=O)N3CCOCC3)N(C)C(=O)[C@H](C3CCCC3)N(C)C(=O)C3(CCC3)NC(=O)[C@H]12 [PP1082] | A (a compound having 10 or more and less than 20 is denoted as A) | B (a compound having 3 or more and less than 10 is denoted as B)
9 | CCCO[C@@H]1CCN2C(=O)[C@H](CCc3cc(F)c(C(F)(F)F)c(F)c3)NC(=O)CN(C)C(=O)[C@H](Cc3ccc(C(F)(F)F)cc3)N3CCCCC[C@@H](C3=O)N(C)C(=O)CN(C)C(=O)[C@H]([C@@H](C)CC)NC(=O)[C@H](CC(C)C)N(C)C(=O)C[C@@H](C(=O)N3CCOCC3)N(C)C(=O)[C@H](C3CCCC3)N(C)C(=O)C3(CCC3)NC(=O)[C@H]12 [PP1083] | B (a compound having 3 or more and less than 10 is denoted as B) | B (a compound having 3 or more and less than 10 is denoted as B)
10 | CC[C@H](C)[C@@H]1NC(=O)[C@H](CC(C)C)N(C)C(=O)C[C@@H](C(=O)N2CCOCC2)N(C)C(=O)[C@H](C2CCCC2)N(C)C(=O)C2(CCC2)NC(=O)[C@@H]2[C@H](OC)CCN2C(=O)[C@H](CCc2cc(F)c(C(F)(F)F)c(F)c2)NC(=O)CN(C)C(=O)[C@H](Cc2ccc(C(F)(F)F)cc2)N2CCCC[C@@H](C2=O)N(C)C(=O)CN(C)C1=O [PP1084] | C (A compound having a KD ratio of 0.1 or more and less than 3 is denoted as C) | B (a compound having 3 or more and less than 10 is denoted as B)
11 | CCO[C@@H]1C[C@H]2C(=O)NC3(CCC3)C(=O)N(C)[C@@H](C3CCCCC3)C(=O)N(C)[C@H](C(=O)N(C)C)CC(=O)N(C)[C@@H](CC)C(=O)N[C@@H]([C@@H](C)CC)C(=O)N(C)CC(=O)N(C)[C@H]3C/C=C\CCN(C3=O)[C@@H](Cc3ccc(C(F)(F)F)cc3)C(=O)N(C)CC(=O)N[C@@H](CCc3cc(F)c(C(F)(F)F)c(F)c3)C(=O)N2C1 [PP1086] | AA (a compound having 20 or more is denoted as AA) | A (a compound having 10 or more and less than 20 is denoted as A)
12 | CCO[C@@H]1C[C@H]2C(=O)NC3(CCC3)C(=O)N(C)[C@@H]([C@@H](C)CC)C(=O)N(C)[C@H](C(=O)N(C)C)CC(=O)N(C)[C@@H](CC)C(=O)N[C@@H]([C@@H](C)CC)C(=O)N(C)CC(=O)N(C)[C@H]3C/C=C\CCN(C3=O)[C@@H](Cc3ccc(C(F)(F)F)cc3)C(=O)N(C)CC(=O)N[C@@H](CCc3cc(F)c(C(F)(F)F)c(F)c3)C(=O)N2C1 [PP1087] | A (a compound having 10 or more and less than 20 is denoted as A) | A (a compound having 10 or more and less than 20 is denoted as A)
13 | CCO[C@@H]1C[C@H]2C(=O)NC3(CCC3)C(=O)N(C)[C@@H](C(C)C)C(=O)N(C)[C@H](C(=O)N(C)C)CC(=O)N(C)[C@@H](CC)C(=O)N[C@@H]([C@@H](C)CC)C(=O)N(C)CC(=O)N(C)[C@H]3C/C=C\CCN(C3=O)[C@@H](Cc3ccc(C(F)(F)F)cc3)C(=O)N(C)CC(=O)N[C@@H](CCc3cc(F)c(C(F)(F)F)c(F)c3)C(=O)N2C1 [PP1088] | A (a compound having 10 or more and less than 20 is denoted as A) | A (a compound having 10 or more and less than 20 is denoted as A)
14 | CCO[C@@H]1C[C@H]2C(=O)NC3(CCC3)C(=O)N(C)[C@@H](CC(C)C)C(=O)N(C)[C@H](C(=O)N(C)C)CC(=O)N(C)[C@@H](CC)C(=O)N[C@@H]([C@@H](C)CC)C(=O)N(C)CC(=O)N(C)[C@H]3C/C=C\CCN(C3=O)[C@@H](Cc3ccc(C(F)(F)F)cc3)C(=O)N(C)CC(=O)N[C@@H](CCc3cc(F)c(C(F)(F)F)c(F)c3)C(=O)N2C1 [PP1089] | AA (a compound having 20 or more is denoted as AA) | A (a compound having 10 or more and less than 20 is denoted as A)
15 | CCO[C@@H]1C[C@H]2C(=O)NC3(CCC3)C(=O)N(C)[C@@H](C3CCCC3)C(=O)N(C)[C@H](C(=O)N3CCCC3)CC(=O)N(C)[C@@H](CC)C(=O)N[C@@H]([C@@H](C)CC)C(=O)N(C)CC(=O)N(C)[C@H]3C/C=C\CCN(C3=O)[C@@H](Cc3ccc(C(F)(F)F)cc3)C(=O)N(C)CC(=O)N[C@@H](CCc3cc(F)c(C(F)(F)F)c(F)c3)C(=O)N2C1 [PP1090] | AA (a compound having 20 or more is denoted as AA) | A (a compound having 10 or more and less than 20 is denoted as A)
16 | CCO[C@@H]1C[C@H]2C(=O)NC3(CCC3)C(=O)N(C)[C@@H](C3CCCC3)C(=O)N(C)[C@H](C(=O)N3CCC3)CC(=O)N(C)[C@@H](CC)C(=O)N[C@@H]([C@@H](C)CC)C(=O)N(C)CC(=O)N(C)[C@H]3C/C=C\CCN(C3=O)[C@@H](Cc3ccc(C(F)(F)F)cc3)C(=O)N(C)CC(=O)N[C@@H](CCc3cc(F)c(C(F)(F)F)c(F)c3)C(=O)N2C1 [PP1091] | A (a compound having 10 or more and less than 20 is denoted as A) | B (a compound having 3 or more and less than 10 is denoted as B)

— patent publication US20250230193A1, “CYCLIC COMPOUND HAVING SELECTIVE KRAS INHIBITORY EFFECT ON HRAS AND NRAS” (CHUGAI SEIYAKU KABUSHIKI KAISHA, priority 2022, published 2025)
